Activity calls are given as the source filed them.
Legend:
Type in all cases: functional
[1] = test system: Staphylococcus aureus; test: Antibacterial activity against hospital-acquired methicillin-sensitive Staphylococcus aureus 443/11 after 18 hrs by twofold serial agar dilution technique; details: 443/11, 18 h
[2] = test system: Staphylococcus aureus; test: Antibacterial activity against hospital-acquired methicillin-resistant Staphylococcus aureus 401/10 after 18 hrs by twofold serial agar dilution technique; details: 401/10, 18 h
[3] = test system: Staphylococcus aureus; test: Antibacterial activity against hospital-acquired methicillin-sensitive Staphylococcus aureus 440/11 after 18 hrs by twofold serial agar dilution technique; details: 440/11, 18 h
[4] = test system: Staphylococcus aureus; test: Antibacterial activity against hospital-acquired methicillin-sensitive Staphylococcus aureus 441/11 after 18 hrs by twofold serial agar dilution technique; details: 441/11, 18 h
[5] = test system: Staphylococcus aureus; test: Antibacterial activity against hospital-acquired methicillin-resistant Staphylococcus aureus 450/11 after 18 hrs by twofold serial agar dilution technique; details: 450/11, 18 h
[6] = test system: Staphylococcus aureus; test: Antibacterial activity against hospital-acquired methicillin-resistant Staphylococcus aureus 394/10 after 18 hrs by twofold serial agar dilution technique; details: 394/10, 18 h
[7] = test system: Staphylococcus aureus; test: Antibacterial activity against hospital-acquired methicillin-sensitive Staphylococcus aureus 447/11 after 18 hrs by twofold serial agar dilution technique; details: 447/11, 18 h
[8] = test system: Staphylococcus aureus; test: Antibacterial activity against hospital-acquired methicillin-sensitive Staphylococcus aureus 445/11 after 18 hrs by twofold serial agar dilution technique; details: 445/11, 18 h
[9] = test system: Staphylococcus aureus; test: Antibacterial activity against hospital-acquired methicillin-resistant Staphylococcus aureus 481/11 after 18 hrs by twofold serial agar dilution technique; details: 481/11, 18 h
[10] = test system: Staphylococcus aureus; test: Antibacterial activity against hospital-acquired methicillin-resistant Staphylococcus aureus 452/11 after 18 hrs by twofold serial agar dilution technique; details: 452/11, 18 h
[11] = test system: Staphylococcus aureus; test: Antibacterial activity against hospital-acquired methicillin-resistant Staphylococcus aureus 399/10 after 18 hrs by twofold serial agar dilution technique; details: 399/10, 18 h
[12] = test system: Staphylococcus aureus; test: Antibacterial activity against hospital-acquired methicillin-sensitive Staphylococcus aureus 446/11 after 18 hrs by twofold serial agar dilution technique; details: 446/11, 18 h
[13] = test system: Staphylococcus aureus; test: Antibacterial activity against hospital-acquired methicillin-sensitive Staphylococcus aureus 444/11 after 18 hrs by twofold serial agar dilution technique; details: 444/11, 18 h
[14] = test system: Staphylococcus aureus; test: Antibacterial activity against hospital-acquired methicillin-resistant Staphylococcus aureus 400/10 after 18 hrs by twofold serial agar dilution technique; details: 400/10, 18 h
[15] = test system: Staphylococcus aureus; test: Antibacterial activity against hospital-acquired methicillin-resistant Staphylococcus aureus 451/11 after 18 hrs by twofold serial agar dilution technique; details: 451/11, 18 h
[16] = test system: Staphylococcus aureus; test: Antibacterial activity against hospital-acquired methicillin-resistant Staphylococcus aureus 393/10 after 18 hrs by twofold serial agar dilution technique; details: 393/10, 18 h
[17] = test system: Staphylococcus aureus; test: Antibacterial activity against hospital-acquired methicillin-sensitive Staphylococcus aureus 442/11 after 18 hrs by twofold serial agar dilution technique; details: 442/11, 18 h
[18] = test system: Staphylococcus aureus; test: Antibacterial activity against hospital-acquired methicillin-sensitive Staphylococcus aureus 448/11 after 18 hrs by twofold serial agar dilution technique; details: 448/11, 18 h
[19] = test system: Staphylococcus aureus; test: Antibacterial activity against hospital-acquired methicillin-sensitive Staphylococcus aureus 449/11 after 18 hrs by twofold serial agar dilution technique; details: 449/11, 18 h
[20] = test system: Staphylococcus aureus; test: Antibacterial activity against hospital-acquired methicillin-resistant Staphylococcus aureus 482/11 after 18 hrs by twofold serial agar dilution technique; details: 482/11, 18 h
[21] = test system: Escherichia coli; test: Antibacterial activity against Escherichia coli NCTC 8196 after 18 hrs by twofold serial agar dilution technique
[22] = test system: Staphylococcus aureus; test: Antibacterial activity against Staphylococcus aureus ATCC 6538 after 18 hrs by twofold serial agar dilution technique; details: ATCC 6538, 18 h
[23] = test system: Staphylococcus epidermidis; test: Antibacterial activity against Staphylococcus epidermidis ATCC 35984 assessed as zone of inhibition at 400 ug/disc after 18 hrs by disc diffusion method; details: ATCC 35984, 18 h, read-out: DIZ
[24] = test system: Staphylococcus epidermidis; test: Antibacterial activity against Staphylococcus epidermidis ATCC 12228 after 18 hrs by twofold serial agar dilution technique; details: ATCC 12228, 18 h
[25] = test system: Staphylococcus aureus; test: Antibacterial activity against methicillin-resistant Staphylococcus aureus clinical isolate
[26] = test system: Bordetella bronchiseptica; test: Antibacterial activity against Bordetella bronchiseptica ATCC 4617 after 18 hrs by twofold serial agar dilution technique
[27] = test system: Staphylococcus aureus; test: Antibacterial activity against Staphylococcus aureus NCTC 4163 after 18 hrs by twofold serial agar dilution technique; details: NCTC 4163, 18 h
[28] = test system: Staphylococcus aureus; test: Antibacterial activity against Staphylococcus aureus ATCC 25923 after 18 hrs by twofold serial agar dilution technique; details: ATCC 25923, 18 h
[29] = test system: Candida albicans; test: Antifungal activity against Candida albicans ATCC 10231 after 24 hrs by twofold serial agar dilution technique
[30] = test system: Staphylococcus aureus; test: Antibacterial activity against Staphylococcus aureus ATCC 29213 after 18 hrs by twofold serial agar dilution technique; details: ATCC 29213, 18 h
[31] = test system: Staphylococcus epidermidis; test: Antibacterial activity against Staphylococcus epidermidis ATCC 12228 assessed as zone of inhibition at 400 ug/disc after 18 hrs by disc diffusion method; details: ATCC 12228, 18 h, read-out: DIZ
[32] = test system: Proteus vulgaris; test: Antibacterial activity against Proteus vulgaris NCTC 4635 after 18 hrs by twofold serial agar dilution technique
[33] = test system: Staphylococcus aureus; test: Antibacterial activity against Staphylococcus aureus NCTC 4163 assessed as zone of inhibition at 400 ug/disc after 18 hrs by disc diffusion method; details: NCTC 4163, 18 h, read-out: DIZ
[34] = test system: Pseudomonas aeruginosa; test: Antibacterial activity against Pseudomonas aeruginosa ATCC 27853 after 18 hrs by twofold serial agar dilution technique
[35] = test system: Staphylococcus epidermidis; test: Antibacterial activity against Staphylococcus epidermidis ATCC 35984 after 18 hrs by twofold serial agar dilution technique; details: ATCC 35984, 18 h
[36] = test system: Staphylococcus aureus; test: Antibacterial activity against Staphylococcus aureus ATCC 6538 assessed as zone of inhibition at 400 ug/disc after 18 hrs by disc diffusion method; details: ATCC 6538, 18 h, read-out: DIZ
[37] = test system: Candida parapsilosis; test: Antifungal activity against Candida parapsilosis ATCC 22019 after 24 hrs by twofold serial agar dilution technique
[38] = test system: Escherichia coli; test: Antibacterial activity against Escherichia coli ATCC 25922 after 18 hrs by twofold serial agar dilution technique
[39] = test system: Staphylococcus aureus; test: Antibacterial activity against Staphylococcus aureus ATCC 25923 assessed as zone of inhibition at 400 ug/disc after 18 hrs by disc diffusion method; details: ATCC 25923, 18 h, read-out: DIZ
[40] = test system: Pseudomonas aeruginosa; test: Antibacterial activity against Pseudomonas aeruginosa NCTC 6749 after 18 hrs by twofold serial agar dilution technique
[41] = test system: Escherichia coli; test: Antibacterial activity against Escherichia coli ATCC 10538 after 18 hrs by twofold serial agar dilution technique
[42] = test system: Staphylococcus aureus; test: Antibacterial activity against Staphylococcus aureus ATCC 29213 assessed as zone of inhibition at 400 ug/disc after 18 hrs by disc diffusion method; details: ATCC 29213, 18 h, read-out: DIZ
[43] = test system: Pseudomonas aeruginosa; test: Antibacterial activity against Pseudomonas aeruginosa ATCC 15442 after 18 hrs by twofold serial agar dilution technique
[44] = test system: Candida albicans; test: Antifungal activity against Candida albicans ATCC 90028 after 24 hrs by twofold serial agar dilution technique

CC[C@@]1([C@@H]2O[C@@H]([C@H]3O[C@@](O)(CO)[C@H](C)C[C@@H]3C)C[C@@H]2C)CC[C@H]([C@]2(C)CC[C@]3(C[C@H](O)[C@@H](C)[C@@H]([C@@H](C)[C@@H](OC)[C@H](C)C(=O)O)O3)O2)O1 [MONENSIN]
2 µg/mL: MIC [2] | MIC [3] | MIC [5] | MIC [7] | MIC [8] | MIC [9] | MIC [10] | MIC [11] | MIC [12] | MIC [14] | MIC [17] | MIC [18] | MIC [19] | MIC [20]
4 µg/mL: MIC [1] | MIC [4] | MIC [6] | MIC [13] | MIC [15] | MIC [16]

CC[C@@H](C(=O)[C@@H](C)[C@@H](O)[C@H](C)[C@@H]1O[C@@H]([C@@H](CC)C(=O)O)CC[C@@H]1C)[C@H]1O[C@]2(C=C[C@@H](O)[C@]3(CC[C@@](C)([C@H]4CC[C@](O)(CC)[C@H](C)O4)O3)O2)[C@H](C)C[C@@H]1C [SALINOMYCIN]
1 µg/mL: MIC [25] | MIC [2] | MIC [3] | MIC [8] | MIC [9] | MIC [10] | MIC [11] | MIC [12] | MIC [14] | MIC [19]
28 mm: zone of inhibition at 400 µg/disc [31]
2 µg/mL: MIC [22] | MIC [24] | MIC [1] | MIC [4] | MIC [27] | MIC [5] | MIC [6] | MIC [7] | MIC [28] | MIC [30] | MIC [13] | MIC [35] | MIC [15] | MIC [16] | MIC [17] | MIC [18] | MIC [20]
inactive: Activity [21] | Activity [26] | Activity [29] | Activity [32] | Activity [34] | Activity [37] | Activity [38] | Activity [40] | Activity [41] | Activity [43] | Activity [44]
30 mm: zone of inhibition at 400 µg/disc [23] | zone of inhibition at 400 µg/disc [36]
31 mm: zone of inhibition at 400 µg/disc [39]
29 mm: zone of inhibition at 400 µg/disc [42]
33 mm: zone of inhibition at 400 µg/disc [33]
